Measurements published in ChEMBL document CHEMBL3632505, “Forsythoneosides A-D, Neuroprotective Phenethanoid and Flavone Glycoside Heterodimers from the Fruits of Forsythia suspensa” (2015).

Columns and labels:
[1] = tested on: PC-12; experiment: Neuroprotective activity against rotenone-induced cell damage in rat PC12 cells assessed as cell viability at 10 uM after 48 hrs by MTT assay (reference value: 53.9 +/- 7.1%); type: functional; conditions: for viability at 10 µM: Rattus norvegicus, PC-12, 48 h, read-out: Activity
[2] = tested on: PC-12; experiment: Neuroprotective activity against rotenone-induced cell damage in rat PC12 cells assessed as cell viability at 1 uM after 48 hrs by MTT assay (reference value: 53.9 +/- 7.1%); type: functional; conditions: for viability at 1 µM: Rattus norvegicus, PC-12, 48 h, read-out: Activity
[3] = tested on: PC-12; experiment: Neuroprotective activity against rotenone-induced cell damage in rat PC12 cells assessed as increase in cell viability after 48 hrs by MTT assay; type: functional, cell-based
[4] = tested on: PC-12; experiment: Neuroprotective activity against rotenone-induced cell damage in rat PC12 cells assessed as cell viability at 0.1 uM after 48 hrs by MTT assay (reference value: 53.9 +/- 7.1%); type: functional; conditions: for viability at 0.1 µM: Rattus norvegicus, PC-12, 48 h, read-out: Activity

## C[C@@H]1O[C@@H](OC[C@H]2O[C@@H](Oc3c(-c4ccc(O)c(O)c4)oc4c5c(cc(O)c4c3=O)Oc3cc(O)c(O)cc3[C@H]5CO[C@@H]3O[C@H](CO[C@@H]4O[C@@H](C)[C@H](O)[C@@H](O)[C@H]4O)[C@@H](OC(=O)/C=C/c4ccc(O)c(O)c4)[C@H](O)[C@H]3O)[C@H](O)[C@@H](O)[C@@H]2O)[C@H](O)[C@H](O)[C@H]1O
[1]
  viability at 10 µM: 81.1%
[2]
  viability at 1 µM: 59.2%
[3]
  Activity: Dose-dependent effect
[4]
  viability at 0.1 µM: 55.8%

## C[C@@H]1O[C@@H](OC[C@H]2O[C@@H](Oc3c(-c4ccc(O)c(O)c4)oc4c5c(cc(O)c4c3=O)Oc3cc(O)c(O)cc3[C@@H]5CO[C@@H]3O[C@H](CO[C@@H]4O[C@@H](C)[C@H](O)[C@@H](O)[C@H]4O)[C@@H](OC(=O)/C=C/c4ccc(O)c(O)c4)[C@H](O)[C@H]3O)[C@H](O)[C@@H](O)[C@@H]2O)[C@H](O)[C@H](O)[C@H]1O
[1]
  viability at 10 µM: 91.2%
[2]
  viability at 1 µM: 75%
[3]
  Activity: Dose-dependent effect
[4]
  viability at 0.1 µM: 70.1%

## O=C(/C=C/c1ccc(O)c(O)c1)O[C@H]1[C@H](O)[C@@H](O)[C@H](OCCc2ccc(O)c(O)c2)O[C@@H]1CO[C@@H]1OC[C@@H](O)[C@H](O)[C@H]1O
[1]
  viability at 10 µM: 56.2%

## C[C@@H]1O[C@@H](OC[C@H]2O[C@@H](Oc3c(-c4ccc(O)c(O)c4)oc4c(-c5cc(O)c(O)cc5CCO[C@@H]5O[C@H](CO[C@@H]6O[C@@H](C)[C@H](O)[C@@H](O)[C@H]6O)[C@@H](OC(=O)/C=C/c6ccc(O)c(O)c6)[C@H](O)[C@H]5O)c(O)cc(O)c4c3=O)[C@H](O)[C@@H](O)[C@@H]2O)[C@H](O)[C@H](O)[C@H]1O (stereo in doubt; 3) [listing 1 of 2 here]
[1]
  Activity: 93.2%
[2]
  viability at 1 µM: 64%
[4]
  viability at 0.1 µM: 54.3%

## C[C@@H]1O[C@@H](OC[C@H]2O[C@@H](Oc3c(-c4ccc(O)c(O)c4)oc4c(-c5cc(O)c(O)cc5CCO[C@@H]5O[C@H](CO[C@@H]6O[C@@H](C)[C@H](O)[C@@H](O)[C@H]6O)[C@@H](OC(=O)/C=C/c6ccc(O)c(O)c6)[C@H](O)[C@H]5O)c(O)cc(O)c4c3=O)[C@H](O)[C@@H](O)[C@@H]2O)[C@H](O)[C@H](O)[C@H]1O (stereo in doubt; 3) [listing 2 of 2 here]
[3]
  Activity: Dose-dependent effect

## C[C@@H]1O[C@@H](OC[C@H]2O[C@@H](Oc3c(-c4ccc(O)c(O)c4)oc4c(-c5cc(O)c(O)cc5CCO[C@@H]5O[C@H](CO[C@@H]6O[C@@H](C)[C@H](O)[C@@H](O)[C@H]6O)[C@@H](OC(=O)/C=C/c6ccc(O)c(O)c6)[C@H](O)[C@H]5O)c(O)cc(O)c4c3=O)[C@H](O)[C@@H](O)[C@@H]2O)[C@H](O)[C@H](O)[C@H]1O (stereo in doubt; 4) [listing 1 of 2 here]
[1]
  viability at 10 µM: 96.2%
[2]
  Activity: 75.5%
[4]
  Activity: 67.9%

## C[C@@H]1O[C@@H](OC[C@H]2O[C@@H](Oc3c(-c4ccc(O)c(O)c4)oc4c(-c5cc(O)c(O)cc5CCO[C@@H]5O[C@H](CO[C@@H]6O[C@@H](C)[C@H](O)[C@@H](O)[C@H]6O)[C@@H](OC(=O)/C=C/c6ccc(O)c(O)c6)[C@H](O)[C@H]5O)c(O)cc(O)c4c3=O)[C@H](O)[C@@H](O)[C@@H]2O)[C@H](O)[C@H](O)[C@H]1O (stereo in doubt; 4) [listing 2 of 2 here]
[3]
  Activity: Dose-dependent effect

## C[C@@H]1O[C@@H](OC[C@H]2O[C@@H](OCCc3ccc(O)c(O)c3)[C@H](O)[C@@H](O)[C@@H]2OC(=O)/C=C/c2ccc(O)c(O)c2)[C@H](O)[C@H](O)[C@H]1O [FORSYTHIASIDE]
[1]
  viability at 10 µM: 60.4%

## C[C@@H]1O[C@@H](OC[C@H]2O[C@@H](Oc3c(-c4ccc(O)c(O)c4)oc4cc(O)cc(O)c4c3=O)[C@H](O)[C@@H](O)[C@@H]2O)[C@H](O)[C@H](O)[C@H]1O [RUTIN]
[1]
  viability at 10 µM: 67.9%

## COC1=C(OC)C(=O)C(C/C=C(\C)CC/C=C(\C)CC/C=C(\C)CC/C=C(\C)CC/C=C(\C)CC/C=C(\C)CC/C=C(\C)CC/C=C(\C)CC/C=C(\C)CCC=C(C)C)=C(C)C1=O [UBIDECARENONE]
[1]
  viability at 10 µM: 59%
